Reference: BindingDB's records for doi:10.1007/s002130100844 (Case Western Reserve University, 2001)
Values joined by “and” are separate entries in the source; they are usually repeats but may differ in a detail not shown here. Equal entries are not always repeated.

Experiments:
[1] = target: Gamma-aminobutyric acid type B receptor subunit 1 (UniProt Q9Z0U4)
[2] = target: Delta-type opioid receptor (Homo sapiens, UniProt P41143)
[3] = target: 5-hydroxytryptamine receptor 2A (Rattus norvegicus, UniProt P14842)
[4] = target: Kappa-type opioid receptor (Homo sapiens, UniProt P41145)
Mu-type opioid receptor = Mu-type opioid receptor (Homo sapiens, UniProt P35372)
[5] = target: Sodium-dependent serotonin transporter (Homo sapiens, UniProt P31645)
[6] = target: Sodium-dependent noradrenaline transporter (Homo sapiens, UniProt P23975)
[7] = target: 5-hydroxytryptamine receptor 1D (Homo sapiens, UniProt P28221)
Sequence of 5-hydroxytryptamine receptor 1D (P28221 whole entry): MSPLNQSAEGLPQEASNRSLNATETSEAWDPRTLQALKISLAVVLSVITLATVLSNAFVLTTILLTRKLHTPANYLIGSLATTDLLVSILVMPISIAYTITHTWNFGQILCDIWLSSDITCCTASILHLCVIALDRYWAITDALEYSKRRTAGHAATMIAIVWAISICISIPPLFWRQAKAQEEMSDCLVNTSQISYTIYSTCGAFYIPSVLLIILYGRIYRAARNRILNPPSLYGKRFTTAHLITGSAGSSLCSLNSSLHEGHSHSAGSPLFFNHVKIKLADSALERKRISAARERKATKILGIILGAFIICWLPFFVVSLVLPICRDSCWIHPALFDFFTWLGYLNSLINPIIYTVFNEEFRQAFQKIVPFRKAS

[8] = target: 5-hydroxytryptamine receptor 7 (Homo sapiens, UniProt P34969)
Sequence of 5-hydroxytryptamine receptor 7 (P34969 whole entry): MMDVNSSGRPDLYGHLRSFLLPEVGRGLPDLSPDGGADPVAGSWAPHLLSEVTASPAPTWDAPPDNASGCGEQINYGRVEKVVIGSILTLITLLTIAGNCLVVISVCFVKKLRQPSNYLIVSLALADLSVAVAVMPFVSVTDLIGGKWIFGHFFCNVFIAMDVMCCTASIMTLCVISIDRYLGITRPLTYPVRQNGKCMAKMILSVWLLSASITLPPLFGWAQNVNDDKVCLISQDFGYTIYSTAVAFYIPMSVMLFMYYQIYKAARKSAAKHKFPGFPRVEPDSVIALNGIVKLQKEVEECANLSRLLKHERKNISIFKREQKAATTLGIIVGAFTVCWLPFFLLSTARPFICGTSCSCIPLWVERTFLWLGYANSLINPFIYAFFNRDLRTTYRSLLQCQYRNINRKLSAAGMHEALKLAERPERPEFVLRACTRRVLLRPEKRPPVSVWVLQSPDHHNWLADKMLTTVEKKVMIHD

D(2) dopamine receptor = D(2) dopamine receptor (Rattus norvegicus, UniProt P61169)
[9] = target: 5-hydroxytryptamine receptor 1E (Homo sapiens, UniProt P28566)
Sequence of 5-hydroxytryptamine receptor 1E (P28566 whole entry): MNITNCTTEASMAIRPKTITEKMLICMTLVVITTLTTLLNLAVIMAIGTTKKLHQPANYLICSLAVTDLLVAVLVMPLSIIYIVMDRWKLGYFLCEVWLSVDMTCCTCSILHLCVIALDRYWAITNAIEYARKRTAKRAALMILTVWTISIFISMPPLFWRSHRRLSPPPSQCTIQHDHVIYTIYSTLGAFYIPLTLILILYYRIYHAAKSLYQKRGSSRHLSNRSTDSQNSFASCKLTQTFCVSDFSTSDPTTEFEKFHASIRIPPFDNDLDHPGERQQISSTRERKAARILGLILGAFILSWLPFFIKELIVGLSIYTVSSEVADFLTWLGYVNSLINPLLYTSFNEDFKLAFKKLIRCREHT

[10] = target: Beta-2 adrenergic receptor (Homo sapiens, UniProt P07550)
Sequence of Beta-2 adrenergic receptor (P07550 whole entry): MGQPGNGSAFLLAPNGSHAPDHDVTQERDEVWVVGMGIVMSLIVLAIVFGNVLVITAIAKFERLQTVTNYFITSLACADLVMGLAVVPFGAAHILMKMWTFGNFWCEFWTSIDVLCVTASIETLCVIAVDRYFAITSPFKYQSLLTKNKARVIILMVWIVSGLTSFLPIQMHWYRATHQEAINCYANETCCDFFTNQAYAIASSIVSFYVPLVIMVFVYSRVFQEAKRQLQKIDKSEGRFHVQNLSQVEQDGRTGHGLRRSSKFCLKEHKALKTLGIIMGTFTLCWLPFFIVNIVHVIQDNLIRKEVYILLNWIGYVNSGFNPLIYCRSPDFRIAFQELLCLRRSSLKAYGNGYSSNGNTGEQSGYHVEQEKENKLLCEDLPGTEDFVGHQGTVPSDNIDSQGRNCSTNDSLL

[11] = target: Muscarinic acetylcholine receptor M3 (Homo sapiens, UniProt P20309)
[12] = target: Alpha-1A adrenergic receptor (Homo sapiens, UniProt P35348)
Sequence of Alpha-1A adrenergic receptor (P35348 whole entry): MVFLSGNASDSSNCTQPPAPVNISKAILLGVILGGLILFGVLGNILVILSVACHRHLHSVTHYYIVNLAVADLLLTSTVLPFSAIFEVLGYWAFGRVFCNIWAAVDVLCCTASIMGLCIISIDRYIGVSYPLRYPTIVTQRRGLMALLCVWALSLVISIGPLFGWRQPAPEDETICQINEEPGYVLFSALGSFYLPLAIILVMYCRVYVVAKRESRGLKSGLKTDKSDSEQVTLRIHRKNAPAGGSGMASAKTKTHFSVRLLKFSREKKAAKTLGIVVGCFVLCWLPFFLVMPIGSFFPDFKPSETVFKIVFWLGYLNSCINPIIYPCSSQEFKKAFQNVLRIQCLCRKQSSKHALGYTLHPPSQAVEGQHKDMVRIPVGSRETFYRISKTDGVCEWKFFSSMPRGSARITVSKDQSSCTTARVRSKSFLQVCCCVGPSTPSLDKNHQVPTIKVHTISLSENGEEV

D(1A) dopamine receptor = D(1A) dopamine receptor (Homo sapiens, UniProt P21728)
[13] = target: 5-hydroxytryptamine receptor 5A (Homo sapiens, UniProt P47898)
[14] = target: 5-hydroxytryptamine receptor 2C (Rattus norvegicus, UniProt P08909)
D(1B) dopamine receptor = D(1B) dopamine receptor (Homo sapiens, UniProt P21918)
[15] = target: Alpha-2B adrenergic receptor (Homo sapiens, UniProt P18089)
Sequence of Alpha-2B adrenergic receptor (P18089 whole entry): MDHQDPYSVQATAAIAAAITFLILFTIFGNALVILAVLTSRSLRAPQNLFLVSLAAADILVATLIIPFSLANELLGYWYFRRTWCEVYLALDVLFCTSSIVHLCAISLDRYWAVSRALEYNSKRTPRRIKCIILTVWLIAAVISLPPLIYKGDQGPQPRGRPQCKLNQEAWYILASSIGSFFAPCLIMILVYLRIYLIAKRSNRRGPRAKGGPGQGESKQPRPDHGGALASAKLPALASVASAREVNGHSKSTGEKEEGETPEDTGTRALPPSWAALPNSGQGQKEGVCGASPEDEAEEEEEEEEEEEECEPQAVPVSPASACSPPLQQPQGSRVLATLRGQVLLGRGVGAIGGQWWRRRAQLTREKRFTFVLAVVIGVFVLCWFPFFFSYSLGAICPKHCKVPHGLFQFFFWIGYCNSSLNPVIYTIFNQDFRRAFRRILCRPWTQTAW

[16] = target: Alpha-2C adrenergic receptor (Homo sapiens, UniProt P18825)
Sequence of Alpha-2C adrenergic receptor (P18825 whole entry): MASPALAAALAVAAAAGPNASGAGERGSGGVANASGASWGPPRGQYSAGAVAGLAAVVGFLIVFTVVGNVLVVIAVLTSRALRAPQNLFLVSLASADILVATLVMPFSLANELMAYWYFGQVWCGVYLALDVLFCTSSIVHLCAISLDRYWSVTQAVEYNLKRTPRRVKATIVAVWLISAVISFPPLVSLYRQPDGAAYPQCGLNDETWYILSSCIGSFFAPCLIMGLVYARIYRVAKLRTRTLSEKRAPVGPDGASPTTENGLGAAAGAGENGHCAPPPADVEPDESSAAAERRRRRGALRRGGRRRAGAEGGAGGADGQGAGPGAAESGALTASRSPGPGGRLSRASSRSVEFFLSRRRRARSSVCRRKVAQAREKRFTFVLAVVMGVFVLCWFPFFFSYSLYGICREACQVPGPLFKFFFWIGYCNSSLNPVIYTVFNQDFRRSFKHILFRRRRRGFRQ

[17] = target: Muscarinic acetylcholine receptor M1 (Homo sapiens, UniProt P11229)
Sequence of Muscarinic acetylcholine receptor M1 (P11229 whole entry): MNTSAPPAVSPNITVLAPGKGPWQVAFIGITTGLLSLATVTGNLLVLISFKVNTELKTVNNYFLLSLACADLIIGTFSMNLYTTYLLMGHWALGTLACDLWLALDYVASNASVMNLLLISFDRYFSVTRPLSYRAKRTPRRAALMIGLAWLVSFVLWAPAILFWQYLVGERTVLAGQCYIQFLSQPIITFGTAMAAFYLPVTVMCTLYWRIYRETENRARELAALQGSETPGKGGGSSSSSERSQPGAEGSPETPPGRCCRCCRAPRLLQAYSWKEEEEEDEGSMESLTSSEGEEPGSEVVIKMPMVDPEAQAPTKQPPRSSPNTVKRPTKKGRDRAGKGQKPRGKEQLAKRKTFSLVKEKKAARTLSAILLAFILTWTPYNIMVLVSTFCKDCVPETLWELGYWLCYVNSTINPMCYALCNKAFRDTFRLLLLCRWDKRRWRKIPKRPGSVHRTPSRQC

[18] = target: Alpha-1B adrenergic receptor (Homo sapiens, UniProt P35368)
Sequence of Alpha-1B adrenergic receptor (P35368 whole entry): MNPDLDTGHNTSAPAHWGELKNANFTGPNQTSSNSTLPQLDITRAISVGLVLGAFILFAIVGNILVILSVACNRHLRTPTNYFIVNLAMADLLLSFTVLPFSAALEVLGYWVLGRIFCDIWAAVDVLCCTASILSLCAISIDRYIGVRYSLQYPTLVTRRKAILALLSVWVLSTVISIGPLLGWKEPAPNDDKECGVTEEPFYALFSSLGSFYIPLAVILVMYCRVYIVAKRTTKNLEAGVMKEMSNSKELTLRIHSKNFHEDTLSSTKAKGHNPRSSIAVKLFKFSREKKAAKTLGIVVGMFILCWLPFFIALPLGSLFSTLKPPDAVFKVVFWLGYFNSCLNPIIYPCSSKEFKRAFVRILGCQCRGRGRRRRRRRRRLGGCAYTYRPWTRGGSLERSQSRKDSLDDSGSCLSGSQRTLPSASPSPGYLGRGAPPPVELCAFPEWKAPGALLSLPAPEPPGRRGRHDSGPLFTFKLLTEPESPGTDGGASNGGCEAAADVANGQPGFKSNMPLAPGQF

Vasopressin V1b receptor = Vasopressin V1b receptor (Homo sapiens, UniProt P47901)
[19] = target: Muscarinic acetylcholine receptor M4 (Homo sapiens, UniProt P08173)
Sequence of Muscarinic acetylcholine receptor M4 (P08173 whole entry): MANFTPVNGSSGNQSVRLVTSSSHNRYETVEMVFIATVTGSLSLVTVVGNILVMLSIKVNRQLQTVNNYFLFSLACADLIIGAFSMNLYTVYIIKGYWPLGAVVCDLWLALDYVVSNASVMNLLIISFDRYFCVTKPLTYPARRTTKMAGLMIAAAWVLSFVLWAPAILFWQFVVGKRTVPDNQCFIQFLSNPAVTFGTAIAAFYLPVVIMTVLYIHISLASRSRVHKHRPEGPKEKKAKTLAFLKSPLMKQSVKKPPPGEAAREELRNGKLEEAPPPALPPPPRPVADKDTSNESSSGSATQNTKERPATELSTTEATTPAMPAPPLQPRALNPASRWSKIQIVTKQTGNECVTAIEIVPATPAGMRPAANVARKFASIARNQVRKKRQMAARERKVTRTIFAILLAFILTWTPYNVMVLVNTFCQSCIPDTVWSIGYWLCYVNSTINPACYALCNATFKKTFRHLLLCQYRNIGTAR

D(4) dopamine receptor = D(4) dopamine receptor (Rattus norvegicus, UniProt P30729)
[20] = target: Sodium-dependent dopamine transporter (Bos taurus, UniProt P27922)
[21] = target: Glutamate receptor ionotropic, NMDA 1 (Rattus norvegicus, UniProt P35439)
[22] = target: Muscarinic acetylcholine receptor M5 (Homo sapiens, UniProt P08912)
[23] = target: Beta-1 adrenergic receptor (Homo sapiens, UniProt P08588)
Sequence of Beta-1 adrenergic receptor (P08588 whole entry): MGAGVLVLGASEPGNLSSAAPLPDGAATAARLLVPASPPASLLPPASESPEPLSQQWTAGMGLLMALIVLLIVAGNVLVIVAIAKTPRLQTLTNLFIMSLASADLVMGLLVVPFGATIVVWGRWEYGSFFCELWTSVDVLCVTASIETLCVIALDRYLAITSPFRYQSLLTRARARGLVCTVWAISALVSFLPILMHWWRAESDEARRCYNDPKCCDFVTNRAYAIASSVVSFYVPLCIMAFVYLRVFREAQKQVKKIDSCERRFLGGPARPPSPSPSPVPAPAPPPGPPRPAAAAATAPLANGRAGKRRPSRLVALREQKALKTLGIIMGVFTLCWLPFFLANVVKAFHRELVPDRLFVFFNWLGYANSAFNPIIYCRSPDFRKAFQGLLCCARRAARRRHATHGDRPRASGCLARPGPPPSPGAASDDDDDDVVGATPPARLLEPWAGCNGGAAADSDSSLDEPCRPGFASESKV

[24] = target: Alpha-2A adrenergic receptor (Homo sapiens, UniProt P08913)

Compound: CC(CF)NCC(O)COc1cccc2[nH]c3ccccc3c12 [Fluorocarazolol,(S)]
- Ki [1]: > 10 µM
- Ki [2]: > 10 µM
- Ki [3]: > 10 µM
- Ki [4]: > 10 µM
- Ki (Mu-type opioid receptor): > 10 µM
- Ki [5]: > 10 µM
- Ki [6]: > 10 µM
- Ki [7]: 3.28 µM and 3.09 µM
- Ki [8]: 7.07 µM and 6.4 µM
- Ki (D(2) dopamine receptor): > 10 µM
- Ki [9]: > 10 µM
- Ki [10]: 0.138 nM and 0.079 nM
- Ki [11]: > 10000 nM and 1590 nM
- Ki [12]: 3200 nM and 611 nM
- Ki (D(1A) dopamine receptor): > 10 µM
- Ki [13]: > 10 µM
- Ki [14]: > 10 µM
- Ki (D(1B) dopamine receptor): > 10 µM
- Ki [15]: > 10 µM and 8.85 µM
- Ki [16]: 1.89 µM and 4.4 µM
- Ki [17]: 2730 nM and 1750 nM
- Ki [18]: 4600 nM and 677 nM
- Ki (Vasopressin V1b receptor): > 10 µM
- Ki [19]: 5.41 µM and > 10 µM
- Ki (D(4) dopamine receptor): > 10 µM
- Ki [20]: > 10 µM
- Ki [21]: > 10 µM
- Ki [22]: 4.88 µM and 5.89 µM
- Ki [23]: 0.45 nM and 0.114 nM
- Ki [24]: 3.36 µM and 2.87 µM
